SMILES strings stand for the structures.

The values below come from ChEMBL document CHEMBL1132469 (J Med Chem, 1999).

The target of assay [1] is T1, Histone deacetylase HD2 (Zea mays, UniProt Q94F81).
T1 sequence (Q94F81 whole entry): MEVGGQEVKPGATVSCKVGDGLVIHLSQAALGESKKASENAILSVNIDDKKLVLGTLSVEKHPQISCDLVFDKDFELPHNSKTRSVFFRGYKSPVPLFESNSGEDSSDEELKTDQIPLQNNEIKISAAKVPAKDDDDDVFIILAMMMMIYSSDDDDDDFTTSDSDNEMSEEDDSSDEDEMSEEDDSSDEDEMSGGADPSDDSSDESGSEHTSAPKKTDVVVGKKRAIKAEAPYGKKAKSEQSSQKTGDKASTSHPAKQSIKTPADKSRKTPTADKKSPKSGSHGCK
As to the kind of experiment: Inhibition of maize Histone deacetylase 2 (HD-2) activity.

Assay [2] has as its target T1, Histone deacetylase HD2. As to the kind of experiment: Inhibition of maize Histone Deacetylase 2 (HD-2) activity (inactive at 40 uM).

The compound `CN(C)c1ccc(C(=O)NCCCCC(=O)NO)cc1` yielded an IC50 against Histone deacetylase HD2 [1] of 2000 nM.
In the case of `CN(C)c1ccc(C(=O)Nc2ccc(CC(=O)O)cc2)cc1`, the IC50 result against Histone deacetylase HD2 [2] was “Not Active”.
Consider `CN(C)c1ccc(C(=O)NCc2ccc(C(=O)NO)cc2)cc1`, for which, on Histone deacetylase HD2 [1], the IC50 is 180 nM.
`CN(C)c1ccc(C(=O)NCCCCCCC(=O)NO)cc1` showed a concentration for half-maximal inhibition (IC50) at Histone deacetylase HD2 [1] of 100 nM. This IC50 lies about 1.8-fold lower than the previous one.
For the compound `CN(C)c1ccc(C(=O)Nc2ccc(CC(=O)NO)cc2)cc1`, at Histone deacetylase HD2 [2], the IC50 entry is “Not Active”.
On the same count and under the same terms, the result for `O=C(O)CCCCCNC(=O)c1ccccc1` reads “Not Active”.
Turning to `CN(C)c1ccc(C(=O)NCCCCCC(=O)NO)cc1`, on Histone deacetylase HD2 [1], the IC50 is 100 nM. That is a sub-micromolar value.
